Reference: ChEMBL document CHEMBL1142133 (2007)

Legend:
Type in all cases: functional
Cryptococcus neoformans [1] = assay: Antifungal activity against flucytosine-resistant Cryptococcus neoformans 99.1026 by checkerboard method
Cryptococcus neoformans [2] = assay: Antifungal activity against flucytosine-resistant Cryptococcus neoformans 98.0673 by checkerboard method
Cryptococcus neoformans [3] = assay: Antifungal activity against flucytosine-resistant Cryptococcus neoformans 550 by checkerboard method
Cryptococcus neoformans [4] = assay: Antifungal activity against flucytosine-resistant Cryptococcus neoformans 280 by checkerboard method
Cryptococcus neoformans [5] = assay: Antifungal activity against flucytosine-resistant Cryptococcus neoformans 98.0176 by checkerboard method
Cryptococcus neoformans [6] = assay: Antifungal activity against flucytosine-resistant Cryptococcus neoformans 98.1121 by checkerboard method
Cryptococcus neoformans [7] = assay: Antifungal activity against flucytosine-resistant Cryptococcus neoformans 18476 by checkerboard method
Cryptococcus neoformans [8] = assay: Antifungal activity against flucytosine-resistant Cryptococcus neoformans 276 by checkerboard method
Cryptococcus neoformans [9] = assay: Antifungal activity against flucytosine-resistant Cryptococcus neoformans 285 by checkerboard method
Cryptococcus neoformans [10] = assay: Antifungal activity against flucytosine-resistant Cryptococcus neoformans 533 by checkerboard method

`O=c1[nH]cc(F)c(=O)[nH]1` [FLUOROURACIL] gave an MIC (Cryptococcus neoformans [1]) of 8 µg/mL, an MIC (Cryptococcus neoformans [2]) of 16 µg/mL and an MIC (Cryptococcus neoformans [3]) of 0.5 µg/mL. The MIC (Cryptococcus neoformans [4]) was 256 µg/mL, the MIC (Cryptococcus neoformans [5]) was 0.008 µg/mL and the MIC (Cryptococcus neoformans [6]) was 256 µg/mL. It also gave an MIC (Cryptococcus neoformans [7]) of 0.25 µg/mL, an MIC (Cryptococcus neoformans [8]) of 256 µg/mL and an MIC (Cryptococcus neoformans [9]) of 4 µg/mL. It also gave an MIC (Cryptococcus neoformans [10]) of 256 µg/mL.
